Measured values reported in US7112579B2, “26,27-Homologated-20-EPI-2-alkyl-19-nor-vitamin D compounds” (Wisconsin Alumni Research Foundation, priority 1997, dated 2006).
Values joined by “and” are separate entries in the source; they are usually repeats but may differ in a detail not shown here. Identical values can stand only once. Marks after values point to notes of the source that are not given here. Blank lines part the entries; values can stand above or below the compound they belong to.

Key:
[1] = tested on: serum calcium (bone calcium mobilization); assay: Serum calcium (bone calcium mobilization) after a single intrajugular dose, vitamin D-deficient rats; type: in vivo, rat; settings: Table 2, single intrajugular dose 650 pmol, 24 h, mean±SEM
Protocol: (§1) Male Holtzman strain weanling rats were obtained from the Sprague Dawley Co. (Indianapolis, Ind.) and fed the 0.47% calcium, 0.3% phosphorus diet described by Suda et al. (J. Nutr. 100, 1049–1052, 1970) for 1 week and then fed the same diet containing 0.02% calcium and 0.3% phosphorus for 2 additional weeks. At this point, they received a single intrajugular injection of the indicated dose dissolved in 0.1 ml of 95% propylene glycol/5% ethanol. Twenty-four hours later they were sacrificed and intestinal calcium transport and serum calcium were determined as described in Table 1. The dose of the compounds was 650 pmol and there were 5 animals per group. The data are expressed as mean±SEM.

[2] = tested on: human promyelocyte HL-60 cells; assay: Differentiation of HL-60 promyelocytes into monocytes (NBT reduction); type: cell-based; settings: for induction of differentiation of HL-60 cells to monocytes, in words: FIGS. 2, 4, 6, comparison in words; for HL-60 Differentiation ED50: concentration inducing 50% maturation (NBT)
Source text: In the next assay, the cellular activity of the synthesized compounds was established by studying their ability to induce differentiation of human promyelocyte HL-60 cells into monocytes.

[3] = tested on: intestinal calcium transport; assay: Intestinal calcium transport after a single intrajugular dose, vitamin D-deficient rats; type: in vivo, rat; settings: Table 2, single intrajugular dose 650 pmol, 24 h, mean±SEM
Protocol: as §1

[4] = tested on: serum calcium (bone calcium mobilization); assay: Serum calcium (bone calcium mobilization), chronic doses 7 days i.p., vitamin D-deficient rats; type: in vivo, rat; settings: for bone calcium mobilization (serum calcium) activity, in words: chronic 7 days, 130 and/or 260 pmol/day
Protocol: (§2) Male weanling rats were obtained from Sprague Dawley Co. (Indianapolis, Ind.) and fed a 0.47% calcium, 0.3% phosphorus vitamin D-deficient diet for 1 week and then given the same diet containing 0.02% calcium, 0.3% phosphorus for 2 weeks. During the last week they were given the indicated dose of compound by intraperitoneal injection in 0.1 ml 95% propylene glycol and 5% ethanol each day for 7 days. The control animals received only the 0.1 ml of 95% propylene glycol, 5% ethanol. Twenty-four hours after the last dose, the rats were sacrificed and intestinal calcium transport was determined by everted sac technique as previously described and serum calcium determined by atomic absorption spectrometry on a model 3110 Perkin Elmer instrument (Norwalk, Conn.). There were 5 rats per group and the values represent mean±SEM.
as §2, with “With respect to the data in Tables 3 and 4, male” for “Male”, “atormic” for “atomic”

[5] = tested on: intestinal calcium transport; assay: Intestinal calcium transport (everted sac), chronic doses 7 days i.p., vitamin D-deficient rats; type: in vivo, rat; settings: for intestinal calcium transport activity, in words: chronic 7 days, 130 and/or 260 pmol/day
Protocol: as §2
as §2, with “With respect to the data in Tables 3 and 4, male” for “Male”, “atormic” for “atomic”

[6] = tested on: intestinal calcium transport; assay: Support of intestinal calcium transport in vitamin D-deficient rats on a low-calcium diet (3 weeks), 7 daily i.p. doses; type: in vivo, rat
[7] = tested on: bone calcium mobilization (serum Ca); assay: Bone calcium mobilization (serum Ca) in vitamin D-deficient rats on a low-calcium diet (3 weeks), 7 daily i.p. doses; type: in vivo, rat
[8] = target: T1, porcine intestinal vitamin D receptor (Sus scrofa, UniProt A3RGC1); assay: Competitive binding to the porcine intestinal vitamin D receptor ([3H]-1,25-(OH)2-D3 displacement); design: species or system pig; settings: Table 8
T1 construct: from tissue; host or cells: porcine intestine
T1 sequence (A3RGC1 1-427): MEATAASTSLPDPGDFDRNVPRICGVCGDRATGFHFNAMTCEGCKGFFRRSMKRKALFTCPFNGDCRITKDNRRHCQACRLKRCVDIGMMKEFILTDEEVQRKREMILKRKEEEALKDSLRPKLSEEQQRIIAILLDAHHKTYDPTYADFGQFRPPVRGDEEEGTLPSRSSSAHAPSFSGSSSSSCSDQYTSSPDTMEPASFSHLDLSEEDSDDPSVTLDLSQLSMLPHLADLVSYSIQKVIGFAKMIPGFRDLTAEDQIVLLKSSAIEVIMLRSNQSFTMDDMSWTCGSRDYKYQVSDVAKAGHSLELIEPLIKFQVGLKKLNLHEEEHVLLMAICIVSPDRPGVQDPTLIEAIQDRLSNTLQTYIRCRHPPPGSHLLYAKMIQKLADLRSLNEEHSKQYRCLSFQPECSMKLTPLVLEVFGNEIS

[9] = listed as 2-Methyl (α and β mixture)-19-Nor-1,25-(OH)2D3
[10] = Table 1, 130 pmol/day/7 days i.p., mean±SEM, 5 rats
[11] = Table 1, 260 pmol/day/7 days i.p., mean±SEM, 5 rats
[12] = listed as α and β isomers of 2-methyl-19-nor-1,25-(OH)2D3
[13] = listed as 2-Methyl (α and β mixture)-19-Nor-20S-1,25-(OH)2D3
[14] = Table 7 panel 1, 260 pmol daily x 7 i.p.
[15] = Table 7 panel 2, 260 pmol daily x 7 i.p.
[16] = Table 9 panel 1, 260 pmol daily x 7 i.p.
[17] = Table 9 panel 2, 260 pmol daily x 7 i.p.
[18] = Table 4, 260 pmol/day/7 days i.p., mean±SEM
[19] = Table 5, 260 pmol/day/7 days i.p.
[20] = Table 9 panel 2, 65 pmol daily x 7 i.p.

Compound: CC(CCCC(C)(C)O)C1CCC2C(=CC=C3CC(O)C(C)C(O)C3)CCCC21C (mixture of isomers) [2-Methyl (α and β) 19-Nor-1,25-(OH)2D3, mixture of 2α and 2β-methyl-19-nor-1α,25-dihydroxyvitamin D3]
- Serum Calcium [1, 9]: 5.4 ± 0.1 mg/100 ml
- induction of differentiation of HL-60 cells to monocytes, in words [2]: activity similar to 1,25-(OH)2D3
- Intestinal Calcium Transport (S/M) [3, 9]: 3.6 ± 0.4 S/M
- Serum Calcium [4, 10]: 6.1 ± 0.1 mg/100 ml
- Serum Calcium [4, 11]: 6.7 ± 0.4 mg/100 ml
- bone calcium mobilization (serum calcium) activity, in words [4, 12]: strong bone calcium mobilization at both dose levels
- Intestinal Calcium Transport (S/M) [5, 10]: 5.0 ± 0.3 S/M
- Intestinal Calcium Transport (S/M) [5, 11]: 5.3 ± 0.6 S/M
- intestinal calcium transport activity, in words [5, 12]: no intestinal calcium transport activity

Compound: CC(CCCC(C)(C)O)C1CCC2C(=CC=C3CC(O)C(C)C(O)C3)CCCC21C (mixture of isomers) [2-Methyl (α and β) 19-Nor-20S-1,25-(OH)2D3] [mixture of 2α and 2β-methyl-19-nor-20S-1α,25-dihydroxyvitamin D3]
- Serum Calcium [1, 13]: 8.1 ± 0.3 mg/100 ml
- induction of differentiation of HL-60 cells to monocytes, in words ([2]; listed as α and β derivatives of 2-methyl-19-nor-20S-1,25-(OH)2D3): extremely potent
- Intestinal Calcium Transport (S/M) [3, 13]: 6.7 ± 0.6 S/M
- Serum Calcium [4, 10]: 9.6 ± 0.1 mg/100 ml
- Serum Calcium ([4]; Table 1, 130 pmol/day/7 days i.p., mean±SEM, 5 rats, listed as 2-methyl-(α and β)-19-nor-20S-1,25-(OH)2D3): 9.6 mg/100 ml
- Serum Calcium [4, 11]: 12.2 ± 0.3 mg/100 ml
- Serum Calcium ([4]; Table 1, 260 pmol/day/7 days i.p., mean±SEM, 5 rats, listed as 2-methyl-(α and β)-19-nor-20S-1,25-(OH)2D3): 12.2 mg/100 ml
- bone calcium mobilization (serum calcium) activity, in words [4]: much higher than that of the native hormone
- Intestinal Calcium Transport (S/M) [5, 10]: 5.0 ± 0.9 S/M
- Intestinal Calcium Transport (S/M) [5, 11]: 6.9 ± 0.5 S/M
- intestinal calcium transport activity, in words [5]: no significant change in intestinal calcium transport at 130 pmol dose level

Compound: C=C1/C(=C\C=C2/CCC[C@]3(C)[C@@H]([C@H](C)CCCC(C)(C)O)CC[C@@H]23)C[C@@H](O)C[C@@H]1O [1α,25-(OH)2D3, 1α,25-dihydroxyvitamin D3, reference compound]
- Serum Calcium [1]: 5.7 ± 0.2 mg/100 ml
- Ca Transport S/M (mean ± SEM) [6, 14]: 7.2 ± 0.6^c S/M
- Ca Transport S/M (mean ± SEM) [6, 15]: 5.0 ± 0.4^c S/M
- Ca Transport S/M (mean ± SEM) [6, 16]: 7.2 ± 0.6^c S/M
- Ca Transport S/M (mean ± SEM) [6, 17]: 5.0 ± 0.4^c S/M
- HL-60 Differentiation ED50 ([2]; Table 6): 4 nM
- HL-60 Differentiation ED50 ([2]; Table 8): 4 nM
- Intestinal Calcium Transport (S/M) [3]: 5.8 ± 0.3 S/M
- Serum Calcium ([4]; Table 1, 260 pmol/day/7 days i.p., mean±SEM, 5 rats, listed as 1,25-(OH)2D3): 7.2 mg/100 ml and 7.2 ± 0.5 mg/100 ml
- Serum Calcium ([4]; Table 3, 260 pmol/day/7 days i.p., mean±SEM, listed as 1,25-(OH)2D3): 6.6±0.4 mg/100 ml
- Serum Calcium [4, 18]: 6.1 ± 0.5 mg/100 ml
- Serum Calcium [4, 19]: 5.2 ± 0.1 mg/100 ml
- Serum Ca (mean ± SEM) [7, 14]: 5.6 ± 0.2^c
- Serum Ca (mean ± SEM) [7, 15]: 6.3 ± 0.2^c
- Serum Ca (mean ± SEM) [7, 16]: 5.6 ± 0.2^c
- Serum Ca (mean ± SEM) [7, 17]: 6.3 ± 0.2^c
- Intestinal Calcium Transport (S/M) [5, 11]: 6.2 ± 0.4 S/M
- Intestinal Calcium Transport (S/M) ([5]; Table 3, 260 pmol/day/7 days i.p., mean±SEM): 4.6 ± 0.2 S/M
- Intestinal Calcium Transport (S/M) [5, 18]: 5.6 ± 1.3 S/M
- Intestinal Calcium Transport (S/M) [5, 19]: 6.6 ± 0.5 S/M

- VDR Binding ratio ([8]; analog average ED50 / ED50 for 1α,25-(OH)2D3): 2.6
- EC50 ([8]; concentration for 50% displacement of radiolabeled 1α,25-(OH)2D3, read-out: VDR Binding ED50): 2.3 nM
Compound: CC1[C@H](O)CC(=C/C=C2\CCC[C@@]3(C)C2CCC3[C@@H](C)CCCC2(O)CCCC2)C[C@H]1O (stereo partly drawn) [Compound 49, 20(S)-1α,25-Dihydroxy-26,27-dimethylene-2β-methyl-19-norvitamin D3]
- Ca Transport S/M (mean ± SEM) [6, 20]: 4.9 ± 0.6^d^1 S/M
- Ca Transport S/M (mean ± SEM) [6, 17]: 5.4 ± 0.7^d^2 S/M
- HL-60 Differentiation Activity ratio ([2]; Table 8, analog average ED50 / ED50 for 1α,25-(OH)2D3): 0.08
- HL-60 Differentiation ED50 ([2]; Table 8): 0.32 nM
- Serum Ca (mean ± SEM) [7, 20]: 5.8 ± 0.2^d^1
- Serum Ca (mean ± SEM) [7, 17]: 9.5 ± 0.1^d^2
